Assay results as given in ChEMBL document CHEMBL1139793, “Synthesis, structure analysis, and antibacterial activity of some novel 10-substituted 2-(4-piperidyl/phenyl)-5,5-dioxo[1,2,4]triazolo[1,5-b][1,2,4]benzothiadiazine derivatives” (2007).
Converted amounts (≈) assume the structure as drawn.

System: Klebsiella pneumoniae
Experiment: Antibacterial activity against Klebsiella pneumoniae MTCC 618 after 24 hrs by disk diffusion method
Assay type: functional

| SMILES | MIC [µg/mL] |
| --- | --- |
| O=S(=O)(c1ccccc1)N1CCC(c2nc3n(n2)S(=O)(=O)c2ccccc2N3c2ccccc2)CC1 | 32 (≈ 61.3 µM) |
| O=S(=O)(Nc1ccc(-c2nc3n(n2)S(=O)(=O)c2ccccc2N3c2ccccc2)cc1)c1ccc(Cl)cc1Cl | 32 (≈ 53.5 µM) |
| Nc1ccc(S(=O)(=O)Nc2ncccn2)cc1 [SULFADIAZINE] | > 64 |
| CN1c2ccccc2S(=O)(=O)n2nc(C3CCN(S(=O)(=O)c4ccccc4)CC3)nc21 | 32 (≈ 69.6 µM) |
| Cc1ccc(S(=O)(=O)Nc2ccc(-c3nc4n(n3)S(=O)(=O)c3ccccc3N4c3ccccc3)cc2)cc1 | 32 (≈ 58.9 µM) |
| CC(=O)Nc1ccc(S(=O)(=O)Nc2ccc(-c3nc4n(n3)S(=O)(=O)c3ccccc3N4C)cc2)cc1 | 32 (≈ 61 µM) |
| Cc1ccc(S(=O)(=O)N2CCC(c3nc4n(n3)S(=O)(=O)c3ccccc3N4c3ccccc3)CC2)cc1 | 16 (≈ 29.9 µM) |
| CN1c2ccccc2S(=O)(=O)n2nc(C3CCN(S(=O)(=O)c4ccc(Cl)cc4Cl)CC3)nc21 | 16 (≈ 30.3 µM) |
| CC(=O)Nc1ccc(S(=O)(=O)N2CCC(c3nc4n(n3)S(=O)(=O)c3ccccc3N4C)CC2)cc1 | 32 (≈ 61.9 µM) |

System: Bacillus subtilis
Experiment: Antibacterial activity against Bacillus subtilis MTCC 441 after 24 hrs by disk diffusion method
Assay type: functional

| SMILES | MIC [µg/mL] |
| --- | --- |
| O=S(=O)(c1ccccc1)N1CCC(c2nc3n(n2)S(=O)(=O)c2ccccc2N3c2ccccc2)CC1 | 16 (≈ 30.7 µM) |
| O=S(=O)(Nc1ccc(-c2nc3n(n2)S(=O)(=O)c2ccccc2N3c2ccccc2)cc1)c1ccc(Cl)cc1Cl | 16 (≈ 26.7 µM) |
| Nc1ccc(S(=O)(=O)Nc2ncccn2)cc1 [SULFADIAZINE] | 16 (≈ 63.9 µM) |
| CN1c2ccccc2S(=O)(=O)n2nc(C3CCN(S(=O)(=O)c4ccccc4)CC3)nc21 | 16 (≈ 34.8 µM) |
| Cc1ccc(S(=O)(=O)Nc2ccc(-c3nc4n(n3)S(=O)(=O)c3ccccc3N4c3ccccc3)cc2)cc1 | 8 (≈ 14.7 µM) |
| CC(=O)Nc1ccc(S(=O)(=O)Nc2ccc(-c3nc4n(n3)S(=O)(=O)c3ccccc3N4C)cc2)cc1 | 16 (≈ 30.5 µM) |
| Cc1ccc(S(=O)(=O)N2CCC(c3nc4n(n3)S(=O)(=O)c3ccccc3N4c3ccccc3)CC2)cc1 | 16 (≈ 29.9 µM) |
| CN1c2ccccc2S(=O)(=O)n2nc(C3CCN(S(=O)(=O)c4ccc(Cl)cc4Cl)CC3)nc21 | 16 (≈ 30.3 µM) |
| CC(=O)Nc1ccc(S(=O)(=O)N2CCC(c3nc4n(n3)S(=O)(=O)c3ccccc3N4C)CC2)cc1 | 32 (≈ 61.9 µM) |

System: Pseudomonas aeruginosa
Experiment: Antibacterial activity against Pseudomonas aeruginosa MTCC 424 after 24 hrs by disk diffusion method
Assay type: functional

| SMILES | MIC [µg/mL] |
| --- | --- |
| O=S(=O)(c1ccccc1)N1CCC(c2nc3n(n2)S(=O)(=O)c2ccccc2N3c2ccccc2)CC1 | 16 (≈ 30.7 µM) |
| O=S(=O)(Nc1ccc(-c2nc3n(n2)S(=O)(=O)c2ccccc2N3c2ccccc2)cc1)c1ccc(Cl)cc1Cl | 16 (≈ 26.7 µM) |
| Nc1ccc(S(=O)(=O)Nc2ncccn2)cc1 [SULFADIAZINE] | 32 (≈ 128 µM) |
| CN1c2ccccc2S(=O)(=O)n2nc(C3CCN(S(=O)(=O)c4ccccc4)CC3)nc21 | 64 (≈ 139 µM) |
| Cc1ccc(S(=O)(=O)Nc2ccc(-c3nc4n(n3)S(=O)(=O)c3ccccc3N4c3ccccc3)cc2)cc1 | 32 (≈ 58.9 µM) |
| CC(=O)Nc1ccc(S(=O)(=O)Nc2ccc(-c3nc4n(n3)S(=O)(=O)c3ccccc3N4C)cc2)cc1 | 32 (≈ 61 µM) |
| Cc1ccc(S(=O)(=O)N2CCC(c3nc4n(n3)S(=O)(=O)c3ccccc3N4c3ccccc3)CC2)cc1 | 32 (≈ 59.7 µM) |
| CN1c2ccccc2S(=O)(=O)n2nc(C3CCN(S(=O)(=O)c4ccc(Cl)cc4Cl)CC3)nc21 | 64 (≈ 121 µM) |
| CC(=O)Nc1ccc(S(=O)(=O)N2CCC(c3nc4n(n3)S(=O)(=O)c3ccccc3N4C)CC2)cc1 | 32 (≈ 61.9 µM) |

System: Staphylococcus epidermidis
Experiment: Antibacterial activity against Staphylococcus epidermidis MTCC 435 after 24 hrs by disk diffusion method
Assay type: functional

| SMILES | MIC [µg/mL] |
| --- | --- |
| O=S(=O)(c1ccccc1)N1CCC(c2nc3n(n2)S(=O)(=O)c2ccccc2N3c2ccccc2)CC1 | 32 (≈ 61.3 µM) |
| O=S(=O)(Nc1ccc(-c2nc3n(n2)S(=O)(=O)c2ccccc2N3c2ccccc2)cc1)c1ccc(Cl)cc1Cl | 32 (≈ 53.5 µM) |
| Nc1ccc(S(=O)(=O)Nc2ncccn2)cc1 [SULFADIAZINE] | 32 (≈ 128 µM) |
| CN1c2ccccc2S(=O)(=O)n2nc(C3CCN(S(=O)(=O)c4ccccc4)CC3)nc21 | 32 (≈ 69.6 µM) |
| Cc1ccc(S(=O)(=O)Nc2ccc(-c3nc4n(n3)S(=O)(=O)c3ccccc3N4c3ccccc3)cc2)cc1 | 32 (≈ 58.9 µM) |
| CC(=O)Nc1ccc(S(=O)(=O)Nc2ccc(-c3nc4n(n3)S(=O)(=O)c3ccccc3N4C)cc2)cc1 | 32 (≈ 61 µM) |
| Cc1ccc(S(=O)(=O)N2CCC(c3nc4n(n3)S(=O)(=O)c3ccccc3N4c3ccccc3)CC2)cc1 | 32 (≈ 59.7 µM) |
| CN1c2ccccc2S(=O)(=O)n2nc(C3CCN(S(=O)(=O)c4ccc(Cl)cc4Cl)CC3)nc21 | 16 (≈ 30.3 µM) |
| CC(=O)Nc1ccc(S(=O)(=O)N2CCC(c3nc4n(n3)S(=O)(=O)c3ccccc3N4C)CC2)cc1 | 32 (≈ 61.9 µM) |

System: Vibrio sp.
Experiment: Antibacterial activity against Vibrio sp. after 24 hrs by disk diffusion method
Assay type: functional

| SMILES | MIC [µg/mL] |
| --- | --- |
| O=S(=O)(c1ccccc1)N1CCC(c2nc3n(n2)S(=O)(=O)c2ccccc2N3c2ccccc2)CC1 | 32 (≈ 61.3 µM) |
| O=S(=O)(Nc1ccc(-c2nc3n(n2)S(=O)(=O)c2ccccc2N3c2ccccc2)cc1)c1ccc(Cl)cc1Cl | 32 (≈ 53.5 µM) |
| Nc1ccc(S(=O)(=O)Nc2ncccn2)cc1 [SULFADIAZINE] | 16 (≈ 63.9 µM) |
| CN1c2ccccc2S(=O)(=O)n2nc(C3CCN(S(=O)(=O)c4ccccc4)CC3)nc21 | 32 (≈ 69.6 µM) |
| Cc1ccc(S(=O)(=O)Nc2ccc(-c3nc4n(n3)S(=O)(=O)c3ccccc3N4c3ccccc3)cc2)cc1 | 32 (≈ 58.9 µM) |
| CC(=O)Nc1ccc(S(=O)(=O)Nc2ccc(-c3nc4n(n3)S(=O)(=O)c3ccccc3N4C)cc2)cc1 | 32 (≈ 61 µM) |
| Cc1ccc(S(=O)(=O)N2CCC(c3nc4n(n3)S(=O)(=O)c3ccccc3N4c3ccccc3)CC2)cc1 | 32 (≈ 59.7 µM) |
| CN1c2ccccc2S(=O)(=O)n2nc(C3CCN(S(=O)(=O)c4ccc(Cl)cc4Cl)CC3)nc21 | 32 (≈ 60.6 µM) |
| CC(=O)Nc1ccc(S(=O)(=O)N2CCC(c3nc4n(n3)S(=O)(=O)c3ccccc3N4C)CC2)cc1 | 16 (≈ 31 µM) |

System: Escherichia coli
Experiment: Antibacterial activity against Escherichia coli MTCC 448 after 24 hrs by disk diffusion method
Assay type: functional

| SMILES | MIC [µg/mL] |
| --- | --- |
| O=S(=O)(c1ccccc1)N1CCC(c2nc3n(n2)S(=O)(=O)c2ccccc2N3c2ccccc2)CC1 | 16 (≈ 30.7 µM) |
| O=S(=O)(Nc1ccc(-c2nc3n(n2)S(=O)(=O)c2ccccc2N3c2ccccc2)cc1)c1ccc(Cl)cc1Cl | 16 (≈ 26.7 µM) |
| Nc1ccc(S(=O)(=O)Nc2ncccn2)cc1 [SULFADIAZINE] | 16 (≈ 63.9 µM) |
| CN1c2ccccc2S(=O)(=O)n2nc(C3CCN(S(=O)(=O)c4ccccc4)CC3)nc21 | 8 (≈ 17.4 µM) |
| Cc1ccc(S(=O)(=O)Nc2ccc(-c3nc4n(n3)S(=O)(=O)c3ccccc3N4c3ccccc3)cc2)cc1 | 16 (≈ 29.4 µM) |
| CC(=O)Nc1ccc(S(=O)(=O)Nc2ccc(-c3nc4n(n3)S(=O)(=O)c3ccccc3N4C)cc2)cc1 | 16 (≈ 30.5 µM) |
| Cc1ccc(S(=O)(=O)N2CCC(c3nc4n(n3)S(=O)(=O)c3ccccc3N4c3ccccc3)CC2)cc1 | 16 (≈ 29.9 µM) |
| CN1c2ccccc2S(=O)(=O)n2nc(C3CCN(S(=O)(=O)c4ccc(Cl)cc4Cl)CC3)nc21 | 16 (≈ 30.3 µM) |
| CC(=O)Nc1ccc(S(=O)(=O)N2CCC(c3nc4n(n3)S(=O)(=O)c3ccccc3N4C)CC2)cc1 | 8 (≈ 15.5 µM) |
